Assay results: the supplement of paper PMC10307832

Experiments:
Assay in all cases: relative viability (nuclei count vs DMSO), 5 days (fraction); higher = more cells survive
Linsitinib + Palbociclib = compound: C[C@]1(O)C[C@@H](c2nc(-c3ccc4ccc(-c5ccccc5)nc4c3)c3c(N)nccn32)C1 [Linsitinib] + CC(=O)c1c(C)c2cnc(Nc3ccc(N4CCNCC4)cn3)nc2n(C2CCCC2)c1=O [Palbociclib] (partner 0.5 µM)
Method in brief: (§1)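 Lung cancer cell lines, seeded in 1536-well plates, were treated the following day by pin tool with a single drug or with five library-drug doses (not always all listed) in √10 steps on top of a fixed anchor-drug dose. Cells were fixed and nuclei stained in one step after 5 days, and nuclei were counted. Relative viability is the nuclei count for treated wells divided by that for vehicle wells, reported as medians of duplicate plates.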

Ispinesib + Luminespib = compound: Cc1ccc(C(=O)N(CCCN)[C@@H](c2nc3cc(Cl)ccc3c(=O)n2Cc2ccccc2)C(C)C)cc1 [Ispinesib] + CCNC(=O)c1noc(-c2cc(C(C)C)c(O)cc2O)c1-c1ccc(CN2CCOCC2)cc1 [Luminespib] (partner 0.01 µM)
Method in brief: as §1

Ispinesib + Foretinib = compound: Cc1ccc(C(=O)N(CCCN)[C@@H](c2nc3cc(Cl)ccc3c(=O)n2Cc2ccccc2)C(C)C)cc1 [Ispinesib] + COc1cc2c(Oc3ccc(NC(=O)C4(C(=O)Nc5ccc(F)cc5)CC4)cc3F)ccnc2cc1OCCCN1CCOCC1 [Foretinib] (partner 0.25 µM)
Method in brief: as §1

Ispinesib + Decitabine = compound: Cc1ccc(C(=O)N(CCCN)[C@@H](c2nc3cc(Cl)ccc3c(=O)n2Cc2ccccc2)C(C)C)cc1 [Ispinesib] + Nc1ncn([C@H]2C[C@H](O)[C@@H](CO)O2)c(=O)n1 [Decitabine] (partner 2 µM)
Method in brief: as §1

Row | Cell Line | relative viability (Linsitinib + Palbociclib; first compound 0.01 µM) | relative viability (Linsitinib + Palbociclib; first compound 0.03162 µM) | relative viability (Linsitinib + Palbociclib; first compound 0.1 µM) | relative viability (Linsitinib + Palbociclib; first compound 1 µM) | relative viability (Ispinesib + Luminespib; first compound 0.001 µM) | relative viability (Ispinesib + Luminespib; first compound 0.003162 µM) | relative viability (Ispinesib + Luminespib; first compound 0.01 µM) | relative viability (Ispinesib + Luminespib; first compound 0.03162 µM) | relative viability (Ispinesib + Luminespib; first compound 0.1 µM) | relative viability (Ispinesib + Foretinib; first compound 0.001 µM) | relative viability (Ispinesib + Foretinib; first compound 0.003162 µM) | relative viability (Ispinesib + Foretinib; first compound 0.01 µM) | relative viability (Ispinesib + Foretinib; first compound 0.03162 µM) | relative viability (Ispinesib + Foretinib; first compound 0.1 µM) | relative viability (Ispinesib + Decitabine; first compound 0.001 µM) | relative viability (Ispinesib + Decitabine; first compound 0.003162 µM) | relative viability (Ispinesib + Decitabine; first compound 0.01 µM) | relative viability (Ispinesib + Decitabine; first compound 0.03162 µM) | relative viability (Ispinesib + Decitabine; first compound 0.1 µM) | relative viability (Linsitinib + Palbociclib; first compound 0.3162 µM)
1 | NCI-H3122 | 0.202 | 0.222 | 0.17 | 0.216 | 0.105 | 0.12 | 0.0892 | 0.0855 | 0.0889 | 0.977 | 1.01 | 1.08 | 1.07 | 0.207 | 0.498 | 0.443 | 0.426 | 0.483 | 0.292 | –
2 | PC-3 [JPC-3] | 0.548 | 0.544 | 0.558 | 0.493 | 0.716 | 0.853 | 0.75 | 0.748 | 0.548 | 1.09 | 1.1 | 0.594 | 1.07 | 0.751 | 0.838 | 0.867 | 0.781 | 0.796 | 0.465 | 0.471
3 | PC-14 | 0.513 | 0.46 | 0.521 | 0.507 | 0.168 | 0.13 | 0.131 | 0.131 | 0.125 | 1.02 | 1.09 | 1.23 | 0.917 | 0.186 | 0.21 | 0.18 | 0.0598 | 0.0507 | 0.0665 | 0.429
4 | RERF-LC-KJ | 0.909 | 0.795 | 1.05 | 1.1 | 1.49 | 1.2 | 0.958 | 0.259 | 0.442 | 0.875 | 0.9 | 0.976 | 0.91 | 0.257 | 0.738 | 0.617 | 0.243 | 0.222 | 0.271 | 0.464
5 | SK-LU-1 | 0.436 | 0.303 | 0.394 | 0.384 | 0.212 | 0.224 | 0.219 | 0.194 | 0.178 | 1.01 | 0.806 | 0.942 | 0.821 | 0.286 | 0.605 | 0.62 | 0.608 | 0.57 | 0.361 | 0.391
6 | SK-MES-1 | 0.325 | 0.297 | 0.323 | 0.324 | 0.954 | 0.691 | 0.966 | 0.203 | 0.221 | 1.01 | 1.02 | 0.993 | 0.928 | 0.256 | 0.359 | 0.393 | 0.286 | 0.187 | 0.211 | 0.296
7 | SW 900 | 0.506 | 0.544 | 0.534 | 0.505 | 0.206 | 0.171 | 0.164 | 0.183 | 0.19 | 0.813 | 0.76 | 0.927 | 0.854 | 0.204 | 0.388 | 0.344 | 0.43 | 0.396 | 0.311 | 0.476
8 | SW 1573 | 0.428 | 0.358 | 0.333 | 0.33 | 0.234 | 0.198 | 0.13 | 0.151 | 0.148 | 0.978 | 0.893 | 0.907 | 1.1 | 0.32 | 0.44 | 0.58 | 0.421 | 0.156 | 0.199 | 0.259
